Assays:
Assay type in all cases: cell-based
P2X7 [1] = biological target: T1, P2X7 (Homo sapiens (Human), UniProt Q99572); test: Ca2+ flux (FLIPR) in 1321N1 cells expressing recombinant human P2X7 channel; conditions: 250 μM BzATP, Calcium-4 dye
Protocol: (§1) 1321N1 cells expressing the recombinant human, rat or mouse P2X7 channel was cultured in HyQ DME/(HyClone/Dulbecco's Modified Eagle Medium) high glucose supplemented with 10% Fetal Bovine Serum (FBS) and appropriate selection marker. Cells were seeded at a density of 25000 cells/well (96-well clear bottom black walled plates) in 100 μl volume/well. On the day of the experiment, cell plates were washed with assay buffer, containing (in mM): 130 NaCl, 2 KCl, 1 CaCl2, 1 MgCl2, 10 HEPES, 5 glucose; pH 7.40 and 300 mOs. After the wash, cells were loaded with the Calcium-4 dye (Molecular Device) and incubated in the dark for 60 minutes. Test compounds were prepared at 250× the test concentration in neat DMSO. Intermediate 96-well compound plates were prepared by transferring 1.2 μL of the compound into 300 μL of assay buffer. A further 3× dilution occurred when transferring 50 μL/well of the compound plate to 100 μL/well in the cell plate. Cells were incubated with test compounds and dye for 30 minutes. […] The fluorescence change was measured 180 seconds after adding the agonist.

rat P2X7 = rat P2X7 (Rattus norvegicus (Rat), UniProt Q64663); test: Ca2+ flux (FLIPR) in 1321N1 cells expressing recombinant rat P2X7 channel; conditions: 250 μM BzATP, Calcium-4 dye
Chain of rat P2X7 (Q64663 whole entry): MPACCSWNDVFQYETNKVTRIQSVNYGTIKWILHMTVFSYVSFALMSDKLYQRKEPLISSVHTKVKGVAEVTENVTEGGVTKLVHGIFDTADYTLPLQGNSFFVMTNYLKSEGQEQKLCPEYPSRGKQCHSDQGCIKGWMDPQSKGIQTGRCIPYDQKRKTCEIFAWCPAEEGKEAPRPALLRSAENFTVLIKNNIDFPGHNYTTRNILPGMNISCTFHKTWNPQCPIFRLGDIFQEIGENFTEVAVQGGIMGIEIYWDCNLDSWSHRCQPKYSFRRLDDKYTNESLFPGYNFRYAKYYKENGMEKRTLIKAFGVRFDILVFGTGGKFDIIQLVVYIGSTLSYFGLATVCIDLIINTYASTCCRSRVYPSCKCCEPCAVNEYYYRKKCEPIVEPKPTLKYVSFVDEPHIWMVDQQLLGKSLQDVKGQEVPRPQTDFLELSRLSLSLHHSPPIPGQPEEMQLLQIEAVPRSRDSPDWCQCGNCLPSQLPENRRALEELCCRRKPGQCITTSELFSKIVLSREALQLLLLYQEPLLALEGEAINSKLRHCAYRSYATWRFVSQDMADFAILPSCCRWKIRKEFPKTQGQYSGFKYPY
Protocol: as §1

P2X7 [2] = biological target: T1, P2X7; test: P2X7 antagonism in human PBMCs (IL-1β release, ELISA); conditions: test compound 10 μM, IL-1β release in human PBMCs, LPS 30 ng/ml + Bz-ATP 0.5 mM, read-out: PBMC 10 μM (% control)
Protocol: Human blood was collected using a blood donor program. […] Cells were incubated for an additional 1.5 hours. […] In Table 2, when the data cell has been left blank, it is intended to mean that the compound was not tested in that assay.

T1 sequence (Q99572 whole entry): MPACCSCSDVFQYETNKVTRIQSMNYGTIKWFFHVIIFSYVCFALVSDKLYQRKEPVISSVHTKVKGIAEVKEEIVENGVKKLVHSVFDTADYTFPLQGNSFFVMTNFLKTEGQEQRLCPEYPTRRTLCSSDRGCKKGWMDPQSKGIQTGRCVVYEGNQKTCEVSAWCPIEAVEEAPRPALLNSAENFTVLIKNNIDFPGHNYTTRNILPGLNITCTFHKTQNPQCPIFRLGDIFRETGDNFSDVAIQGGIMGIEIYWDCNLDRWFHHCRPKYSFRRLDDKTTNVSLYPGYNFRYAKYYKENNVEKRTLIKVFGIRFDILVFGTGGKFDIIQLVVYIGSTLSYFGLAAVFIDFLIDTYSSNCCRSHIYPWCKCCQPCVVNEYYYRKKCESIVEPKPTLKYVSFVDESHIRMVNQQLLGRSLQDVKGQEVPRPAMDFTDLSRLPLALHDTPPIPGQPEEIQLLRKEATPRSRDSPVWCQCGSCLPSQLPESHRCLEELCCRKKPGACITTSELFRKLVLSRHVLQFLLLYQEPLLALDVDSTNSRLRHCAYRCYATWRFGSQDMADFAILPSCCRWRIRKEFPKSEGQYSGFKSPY

| IC50 (P2X7 [1]) [nM] | IC50 (rat P2X7) [nM] | remaining activity at 10 µM (P2X7 [2]) [%] | SMILES |
| --- | --- | --- | --- |
| 3240 | – | – | Cc1nc2c(c(-c3ccn[nH]3)n1)C[C@H](C)N(C(=O)c1cccc(C(F)(F)F)c1C)C2 (single isomer, unassigned) [Example 79, (S*)-(2,6-dimethyl-4-(1H-pyrazol-5-yl)-5,6-dihydropyrido[3,4-d]pyrimidin-7(8H)-yl)(2-methyl-3-(trifluoromethyl)phenyl)methanone] |
| 11000 | – | – | Cc1nc2c(c(-c3ccn[nH]3)n1)C[C@@H](C)N(C(=O)c1ccc(Cl)cc1F)C2 (single isomer, unassigned) [Example 88, (R*)-(4-chloro-2-fluorophenyl)(2,6-dimethyl-4-(1H-pyrazol-5-yl)-5,6-dihydropyrido[3,4-d]pyrimidin-7(8H)-yl)methanone] |
| > 10000 | > 10000 | – | Cc1nc2c(c(-c3ccn[nH]3)n1)C[C@@H](C)N(C(=O)c1ccc(F)cc1F)C2 (single isomer, unassigned) [Example 94, (R*)-(2,4-difluorophenyl)(2,6-dimethyl-4-(1H-pyrazol-5-yl)-5,6-dihydropyrido[3,4-d]pyrimidin-7(8H)-yl)methanone] |
| – | – | 10.2 | Cc1nc2c(c(-c3ccn[nH]3)n1)CC(C)N(C(=O)c1cccc(C(F)(F)F)c1Cl)C2 (stereo not shown) [Example 56, 7-{[2-Chloro-3-(trifluoromethyl)phenyl]carbonyl}-2,6-dimethyl-4-(1H-pyrazol-5-yl)-5,6,7,8-tetrahydropyrido[3,4-d]pyrimidine] |
| – | – | -2.1 | Cc1nc2c(c(-c3ccn[nH]3)n1)CC(C)N(C(=O)c1ccc(F)c(C(F)(F)F)c1Cl)C2 (stereo not shown) [Example 64, (2-chloro-4-fluoro-3-(trifluoromethyl)phenyl)(2,6-dimethyl-4-(1H-pyrazol-5-yl)-5,6-dihydropyrido[3,4-d]pyrimidin-7(8H)-yl)methanone] |
| – | 14.5 | -1.3 | Cc1nc2c(c(-c3ccn[nH]3)n1)CC(C)N(C(=O)c1cccc(Cl)c1Cl)C2 (stereo not shown) [Example 67, (2,3-dichlorophenyl)(2,6-dimethyl-4-(1H-pyrazol-5-yl)-5,6-dihydropyrido[3,4-d]pyrimidin-7(8H)-yl)methanone] |
| – | – | -2.7 | Cc1nc2c(c(-c3ccn[nH]3)n1)CC(C)N(C(=O)c1ccc(Cl)c(F)c1Cl)C2 (stereo not shown) [Example 70, (2,4-dichloro-3-fluorophenyl)(2,6-dimethyl-4-(1H-pyrazol-5-yl)-5,6-dihydropyrido[3,4-d]pyrimidin-7(8H)-yl)methanone] |
| – | 17.8 | 2.2 | Cc1nc2c(c(-c3ccnn3C)n1)CC(C)N(C(=O)c1cccc(C(F)(F)F)c1Cl)C2 (stereo not shown) [Example 73, (2-chloro-3-(trifluoromethyl)phenyl)(2,6-dimethyl-4-(1-methyl-1H-pyrazol-5-yl)-5,6-dihydropyrido[3,4-d]pyrimidin-7(8H)-yl)methanone] |
| – | – | 22.5 | Cc1nc2c(c(-c3ccn[nH]3)n1)CC(C)N(C(=O)c1cccc(C(F)(F)F)c1F)C2 (stereo not shown) [Example 74, (2,6-dimethyl-4-(1H-pyrazol-5-yl)-5,6-dihydropyrido[3,4-d]pyrimidin-7(8H)-yl)(2-fluoro-3-(trifluoromethyl)phenyl)methanone] |
| – | – | 18.4 | Cc1nc2c(c(-c3ccn[nH]3)n1)CC(C)N(C(=O)c1ccc(F)c(Cl)c1Cl)C2 (stereo not shown) [Example 80, (2,3-dichloro-4-fluorophenyl)(2,6-dimethyl-4-(1H-pyrazol-5-yl)-5,6-dihydropyrido[3,4-d]pyrimidin-7(8H)-yl)methanone] |
| – | – | 2.7 | Cc1nc2c(c(-c3ccn[nH]3)n1)CC(C)N(C(=O)c1ccc(Cl)cc1Cl)C2 (stereo not shown) [Example 83, (2,4-dichlorophenyl)(2,6-dimethyl-4-(1H-pyrazol-5-yl)-5,6-dihydropyrido[3,4-d]pyrimidin-7(8H)-yl)methanone] |
| – | – | 92.2 | Cc1nc2c(c(-c3ccn[nH]3)n1)CC(C)N(C(=O)c1cc(Cl)ccc1Cl)C2 (stereo not shown) [Example 86, (2,5-dichlorophenyl)(2,6-dimethyl-4-(1H-pyrazol-5-yl)-5,6-dihydropyrido[3,4-d]pyrimidin-7(8H)-yl)methanone] |
| – | – | 13.2 | CCc1nc2c(c(-c3ccn[nH]3)n1)CC(C)N(C(=O)c1cccc(C(F)(F)F)c1Cl)C2 (stereo not shown) [Example 98, (2-chloro-3-(trifluoromethyl)phenyl)(2-ethyl-6-methyl-4-(1H-pyrazol-5-yl)-5,6-dihydropyrido[3,4-d]pyrimidin-7(8H)-yl)methanone] |
| – | – | 13.6 | CC(C)c1nc2c(c(-c3ccn[nH]3)n1)CC(C)N(C(=O)c1cccc(C(F)(F)F)c1Cl)C2 (stereo not shown) [Example 101, (2-chloro-3-(trifluoromethyl)phenyl)(2-isopropyl-6-methyl-4-(1H-pyrazol-5-yl)-5,6-dihydropyrido[3,4-d]pyrimidin-7(8H)-yl)methanone] |
| – | 23.7 | -1.3 | CCc1nc2c(c(-c3ccn[nH]3)n1)CC(C)N(C(=O)c1ccc(Cl)c(F)c1Cl)C2 (stereo not shown) [Example 104, (2,4-dichloro-3-fluorophenyl)(2-ethyl-6-methyl-4-(1H-pyrazol-5-yl)-5,6-dihydropyrido[3,4-d]pyrimidin-7(8H)-yl)methanone] |
| – | 21 | -0.6 | CC1c2ncnc(-c3ccn[nH]3)c2CCN1C(=O)c1ccc(F)c(Cl)c1Cl (stereo not shown) [Example 118, (2,3-dichloro-4-fluorophenyl)(8-methyl-4-(1H-pyrazol-5-yl)-5,6-dihydropyrido[3,4-d]pyrimidin-7(8H)-yl)methanone] |

Continued, compound first:

| SMILES | IC50 (P2X7 [1]) [nM] | IC50 (rat P2X7) [nM] | remaining activity at 10 µM (P2X7 [2]) [%] |
| --- | --- | --- | --- |
| COCCn1ccc(-c2nc(C)nc3c2C[C@H](C)N(C(=O)c2cccc(C(F)(F)F)c2Cl)C3)n1 (single isomer, unassigned) [Example 127, (S*)-(2-chloro-3-(trifluoromethyl)phenyl)(4-(1-(2-methoxyethyl)-1H-pyrazol-3-yl)-2,6-dimethyl-5,6-dihydropyrido[3,4-d]pyrimidin-7(8H)-yl)methanone] | > 10000 | > 10000 | – |
| Cc1nc2c(c(-c3ccc(F)cc3)n1)CCN(C(=O)c1cccc(Cl)c1Cl)C2 [Example 28, 7-[(2,3-Dichlorophenyl)carbonyl]-4-(4-fluorophenyl)-2-methyl-5,6,7,8-tetrahydropyrido[3,4-d]pyrimidine] | – | 8570 | 12.4 |
| Nc1nc2c(c(-c3ccccc3)n1)CCN(C(=O)c1cccc(Cl)c1Cl)C2 [Example 29, 7-[(2,3-Dichlorophenyl)carbonyl]-4-phenyl-5,6,7,8-tetrahydropyrido[3,4-d]pyrimidin-2-amine] | 796 | – | – |
| Cc1nc2c(c(-c3ccccc3)n1)CCN(C(=O)c1cccc(C(F)(F)F)c1Cl)C2 [Example 32, 7-{[2-Chloro-3-(trifluoromethyl)phenyl]carbonyl}-2-methyl-4-phenyl-5,6,7,8-tetrahydropyrido[3,4-d]pyrimidine] | 265 | – | – |
| Cc1nc2c(c(-c3cnoc3)n1)CCN(C(=O)c1cccc(C(F)(F)F)c1Cl)C2 [Example 49, 7-{[2-Chloro-3-(trifluoromethyl)phenyl]carbonyl}-4-isoxazol-4-yl-2-methyl-5,6,7,8-tetrahydropyrido[3,4-d]pyrimidine] | – | – | 16.3 |
| Cc1noc(C)c1-c1ncnc2c1CCN(C(=O)c1cccc(C(F)(F)F)c1Cl)C2 [Example 50, 7-{[2-Chloro-3-(trifluoromethyl)phenyl]carbonyl}-4-(3,5-dimethylisoxazol-4-yl)-5,6,7,8-tetrahydropyrido[3,4-d]pyrimidine] | – | – | 83.5 |
| Cc1nc2c(c(-c3ccn[nH]3)n1)CCN(C(=O)c1cccc(C(F)(F)F)c1F)C2 [Example 51, 7-{[2-Fluoro-3-(trifluoromethyl)phenyl]carbonyl}-2-methyl-4-(1H-pyrazol-5-yl)-5,6,7,8-tetrahydropyrido[3,4-d]pyrimidine] | – | – | 17.3 |
| Cc1nc2c(c(-c3ccn[nH]3)n1)CCN(C(=O)c1cccc(C(F)(F)F)c1C)C2 [Example 52, 2-Methyl-7-{[2-methyl-3-(trifluoromethyl)phenyl]carbonyl}-4-(1H-pyrazol-5-yl)-5,6,7,8-tetrahydropyrido[3,4-d]pyrimidine] | – | – | 9.3 |
| Nc1nc2c(c(-c3ccn[nH]3)n1)CCN(C(=O)c1cccc(C(F)(F)F)c1Cl)C2 [Example 55, 7-{[2-Chloro-3-(trifluoromethyl)phenyl]carbonyl}-4-(1H-pyrazol-5-yl)-5,6,7,8-tetrahydropyrido[3,4-d]pyrimidin-2-amine] | – | 117 | -2.1 |
| CC1c2ncnc(-c3ccn[nH]3)c2CCN1C(=O)c1cccc(C(F)(F)F)c1Cl (stereo not shown) [Example 112, (2-chloro-3-(trifluoromethyl)phenyl)(8-methyl-4-(1H-pyrazol-5-yl)-5,6-dihydropyrido[3,4-d]pyrimidin-7(8H)-yl)methanone] | – | 16 | -1.8 |
| CC1c2ncnc(-c3ccn[nH]3)c2CCN1C(=O)c1ccc(F)c(C(F)(F)F)c1Cl (stereo not shown) [Example 115, (2-chloro-4-fluoro-3-(trifluoromethyl)phenyl)(8-methyl-4-(1H-pyrazol-5-yl)-5,6-dihydropyrido[3,4-d]pyrimidin-7(8H)-yl)methanone] | – | – | -3.1 |
| CC1c2ncnc(-c3ccn[nH]3)c2CCN1C(=O)c1ccc(Cl)c(F)c1Cl (stereo not shown) [Example 121] | – | – | 0.7 |
